Measured values published in patent publication US9125913B2, “Bcl-2-selective apoptosis-inducing agents for the treatment of cancer and immune diseases” (AbbVie Inc., priority 2008, dated 2015).

System: GST-Bcl-2
Test: TR-FRET binding assay, Bcl-2
Details: TR-FRET Ki values
In short: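 Compounds serially diluted in DMSO from 50 μM (2× starting concentration, 10% DMSO), mixed with GST-tagged protein, F-Bak peptide probe and Tb-labeled antibody, incubated 3 h at room temperature.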

Structure (SMILES)	Binding selectivity ratio (Bcl-XL Ki/Bcl-2 Ki)
CCN1CCCC1CNC(=O)c1cc(S(=O)(=O)NC(=O)c2ccc(N3CCN(Cc4ccccc4-c4ccc(Cl)cc4)CC3)cc2Oc2ccccc2)ccc1OC (centres unmarked) [Example 33, 4-{4-[(4′-chloro-1,1′-biphenyl-2-yl)methyl]piperazin-1-yl}-N-{[3-({[(1-ethylpyrrolidin-2-yl)methyl]amino}carbonyl)-4-methoxyphenyl]sulfonyl}-2-phenoxybenzamide]	49.9
CC(C)[C@H](CO)Nc1ccc(S(=O)(=O)NC(=O)c2ccc(N3CCN(CC4=C(c5ccc(Cl)cc5)CC(C)(C)CC4)CC3)cc2Oc2ccc3[nH]ccc3c2)cc1[N+](=O)[O-] [EXAMPLE 371, 4-(4-{[2-(4-chlorophenyl)-4,4-dimethylcyclohex-1-en-1-yl]methyl}piperazin-1-yl)-N-[(4-{[(1R)-1-(hydroxymethyl)-2-methylpropyl]amino}-3-nitrophenyl)sulfonyl]-2-(1H-indol-5-yloxy)benzamide]	>78.8
CC(C)N(C)CCCNc1ccc(S(=O)(=O)NC(=O)c2ccc(N3CCN(Cc4ccccc4-c4ccc(Cl)cc4)CC3)cc2Oc2ccccc2)cc1[N+](=O)[O-] [Example 93, 4-{4-[(4′-chloro-1,1′-biphenyl-2-yl)methyl]piperazin-1-yl}-N-{[4-({3-[isopropyl(methyl)amino]propyl}amino)-3-nitrophenyl]sulfonyl}-2-phenoxybenzamide]	60
CC1(C)CCC(CN2CCN(c3ccc(C(=O)NS(=O)(=O)c4ccc(NCC5CN(C6CC6)CCO5)c([N+](=O)[O-])c4)c(Oc4cccc5[nH]cnc45)c3)CC2)=C(c2ccc(Cl)cc2)C1 (centres unmarked) [EXAMPLE 432, 2-(1H-benzimidazol-4-yloxy)-4-(4-{[2-(4-chlorophenyl)-4,4-dimethylcyclohex-1-en-1-yl]methyl}piperazin-1-yl)-N-[(4-{[(4-cyclopropylmorpholin-2-yl)methyl]amino}-3-nitrophenyl)sulfonyl]benzamide]	408.8
CC1(C)CCC(CN2CCN(c3ccc(C(=O)NS(=O)(=O)c4ccc(NC5CCN(S(C)(=O)=O)CC5)c([N+](=O)[O-])c4)c(Oc4ccc5[nH]ccc5c4)c3)CC2)=C(c2ccc(Cl)cc2)C1 [EXAMPLE 335, 4-(4-{[2-(4-chlorophenyl)-4,4-dimethylcyclohex-1-en-1-yl]methyl}piperazin-1-yl)-2-(1H-indol-5-yloxy)-N-[(4-{[1-(methylsulfonyl)piperidin-4-yl]amino}-3-nitrophenyl)sulfonyl]benzamide]	>1508.2
CC1(C)CCC(CN2CCN(c3ccc(C(=O)NS(=O)(=O)c4ccc(NCC5CN(C6CC6)CCO5)c([N+](=O)[O-])c4)c(Oc4cccc5[nH]ncc45)c3)CC2)=C(c2ccc(Cl)cc2)C1 (centres unmarked) [EXAMPLE 411, 4-(4-{[2-(4-chlorophenyl)-4,4-dimethylcyclohex-1-en-1-yl]methyl}piperazin-1-yl)-N-[(4-{[(4-cyclopropylmorpholin-2-yl)methyl]amino}-3-nitrophenyl)sulfonyl]-2-(1H-indazol-4-yloxy)benzamide]	2352
CC(=O)N1CCOC(CNc2ccc(S(=O)(=O)NC(=O)c3ccc(N4CCN(CC5=C(c6ccc(Cl)cc6)CC(C)(C)CC5)CC4)cc3Oc3cccc4[nH]cnc34)cc2[N+](=O)[O-])C1 (centres unmarked) [EXAMPLE 457, N-[(4-{[(4-acetylmorpholin-2-yl)methyl]amino}-3-nitrophenyl)sulfonyl]-2-(1H-benzimidazol-4-yloxy)-4-(4-{[2-(4-chlorophenyl)-4,4-dimethylcyclohex-1-en-1-yl]methyl}piperazin-1-yl)benzamide]	7414
CC1(C)CCC(CN2CCN(c3ccc(C(=O)NS(=O)(=O)c4ccc(NCCC(F)(F)F)c([N+](=O)[O-])c4)c(Oc4cccc5[nH]ccc45)c3)CC2)=C(c2ccc(Cl)cc2)C1 [EXAMPLE 323, 4-(4-{[2-(4-chlorophenyl)-4,4-dimethylcyclohex-1-en-1-yl]methyl}piperazin-1-yl)-2-(1H-indol-4-yloxy)-N-({3-nitro-4-[(3,3,3-trifluoropropyl)amino]phenyl}sulfonyl)benzamide]	>695.2
CC(c1ccccc1-c1ccc(Cl)cc1)N1CCN(c2ccc(C(=O)NS(=O)(=O)c3ccc(NN4CCN(C)CC4)c([N+](=O)[O-])c3)c(Oc3cccc4[nH]ccc34)c2)CC1 (centres unmarked) [EXAMPLE 217, 4-{4-[1-(4′-chloro-1,1′-biphenyl-2-yl)ethyl]piperazin-1-yl}-2-(1H-indol-4-yloxy)-N-({4-[(4-methylpiperazin-1-yl)amino]-3-nitrophenyl}sulfonyl)benzamide]	171.1
CC1(C)CCC(CN2CCN(c3ccc(C(=O)NS(=O)(=O)c4ccc(NCC5CCOCC5)c([N+](=O)[O-])c4)c(Oc4ccc5[nH]ccc5c4)c3)CC2CO)=C(c2ccc(Cl)cc2)C1 (centres unmarked) [EXAMPLE 236, 4-[4-{[2-(4-chlorophenyl)-4,4-dimethylcyclohex-1-en-1-yl]methyl}-3-(hydroxymethyl)piperazin-1-yl]-2-(1H-indol-5-yloxy)-N-({3-nitro-4-[(tetrahydro-2H-pyran-4-ylmethyl)amino]phenyl}sulfonyl)benzamide]	>1787.6
CC1(C)CCC(CN2CCN(c3ccc(C(=O)NS(=O)(=O)c4ccc(NC5CCN(Cc6cscn6)CC5)c([N+](=O)[O-])c4)c(Oc4ccc5[nH]ccc5c4)c3)CC2)=C(c2ccc(Cl)cc2)C1 [EXAMPLE 231, 4-(4-{[2-(4-chlorophenyl)-4,4-dimethylcyclohex-1-en-1-yl]methyl}piperazin-1-yl)-2-(1H-indol-5-yloxy)-N-[(3-nitro-4-{[1-(1,3-thiazol-4-ylmethyl)piperidin-4-yl]amino}phenyl)sulfonyl]benzamide]	>718.8
CN(C)CCCOc1ccc(-c2ccc(Cl)cc2)c(CN2CCN(c3ccc(C(=O)NS(=O)(=O)c4ccc(NCC5CCOCC5)c([N+](=O)[O-])c4)c(Oc4ccccc4)c3)CC2)c1 [Example 116, 4-[4-({4′-chloro-4-[3-(dimethylamino)propoxy]-1,1′-biphenyl-2-yl}methyl)piperazin-1-yl]-N-({3-nitro-4-[(tetrahydro-2H-pyran-4-ylmethyl)amino]phenyl}sulfonyl)-2-phenoxybenzamide]	230.7
CNc1ccc(S(=O)(=O)NC(=O)c2ccc(N3CCN(CC4=C(c5ccc(Cl)cc5)CC(C)(C)CC4)CC3)cc2Oc2ccc3[nH]ccc3c2)cc1S(=O)(=O)C(F)(F)F [EXAMPLE 328, 4-(4-{[2-(4-chlorophenyl)-4,4-dimethylcyclohex-1-en-1-yl]methyl}piperazin-1-yl)-2-(1H-indol-5-yloxy)-N-({4-(methylamino)-3-[(trifluoromethyl)sulfonyl]phenyl}sulfonyl)benzamide]	>355.0
O=C(NS(=O)(=O)c1ccc(NC2CCN(S(=O)(=O)c3cccc4cccnc34)CC2)c([N+](=O)[O-])c1)c1ccc(N2CCN(Cc3ccccc3-c3ccc(Cl)cc3)CC2)cc1Oc1ccccc1 [Example 158, 4-{4-[(4′-chloro-1,1′-biphenyl-2-yl)methyl]piperazin-1-yl}-N-[(3-nitro-4-{[1-(quinolin-8-ylsulfonyl)piperidin-4-yl]amino}phenyl)sulfonyl]-2-phenoxybenzamide]	>10.2
CN1CCC(O)(CNc2ccc(S(=O)(=O)NC(=O)c3ccc(N4CCN(CC5=C(c6ccc(Cl)cc6)CC(C)(C)CC5)CC4)cc3Oc3cccc4[nH]ccc34)cc2[N+](=O)[O-])CC1 [EXAMPLE 186, 4-(4-{[2-(4-chlorophenyl)-4,4-dimethylcyclohex-1-en-1-yl]methyl}piperazin-1-yl)-N-[(4-{[(4-hydroxy-1-methylpiperidin-4-yl)methyl]amino}-3-nitrophenyl)sulfonyl]-2-(1H-indol-4-yloxy)benzamide]	1069.2
CC1(C)CCC(CN2CCN(c3ccc(C(=O)NS(=O)(=O)c4cnc(OCCN5CCOCC5)c(C#N)c4)c(Oc4cccc5[nH]ccc45)c3)CC2)=C(c2ccc(Cl)cc2)C1 [EXAMPLE 392, 4-(4-{[2-(4-chlorophenyl)-4,4-dimethylcyclohex-1-en-1-yl]methyl}piperazin-1-yl)-N-{[5-cyano-6-(2-morpholin-4-ylethoxy)pyridin-3-yl]sulfonyl}-2-(1H-indol-4-yloxy)benzamide]	320.2
CC(C)(C)c1ccc(CN2CCN(c3ccc(C(=O)NS(=O)(=O)c4ccc(OCC5CCOCC5)c([N+](=O)[O-])c4)c(Oc4ccc5[nH]ccc5c4)c3)CC2)c(-c2ccc(Cl)cc2)c1 [EXAMPLE 342, 4-{4-[(5-tert-butyl-4′-chloro-1,1′-biphenyl-2-yl)methyl]piperazin-1-yl}-2-(1H-indol-5-yloxy)-N-{[3-nitro-4-(tetrahydro-2H-pyran-4-ylmethoxy)phenyl]sulfonyl}benzamide]	>25.6
COCCNC(=O)c1ccc(S(=O)(=O)NC(=O)c2ccc(N3CCN(CC4=C(c5ccc(Cl)cc5)CC(C)(C)CC4)CC3)cc2Oc2ccc3[nH]ccc3c2)cc1 [EXAMPLE 332, 4-(4-{[2-(4-chlorophenyl)-4,4-dimethylcyclohex-1-en-1-yl]methyl}piperazin-1-yl)-2-(1H-indol-5-yloxy)-N-[(4-{[(2-methoxyethyl)amino]carbonyl}phenyl)sulfonyl]benzamide]	>52.5
CC1(C)CCC(CN2CCN(c3ccc(C(=O)NS(=O)(=O)c4ccc(NCCCN5CCOCC5)c(S(=O)(=O)C(F)(F)F)c4)c(Oc4cccc5[nH]ccc45)c3)CC2)=C(c2ccc(Cl)cc2)C1 [EXAMPLE 349, 4-(4-{[2-(4-chlorophenyl)-4,4-dimethylcyclohex-1-en-1-yl]methyl}piperazin-1-yl)-2-(1H-indol-4-yloxy)-N-({4-[(3-morpholin-4-ylpropyl)amino]-3-[(trifluoromethyl)sulfonyl]phenyl}sulfonyl)benzamide]	51.9
CNc1ccc(S(=O)(=O)NC(=O)c2ccc(N3CCN(CC4=C(c5ccc(Cl)cc5)CC(C)(C)CC4)CC3)cc2Oc2ccc3[nH]ccc3c2)cc1[N+](=O)[O-] [EXAMPLE 245, 4-(4-{[2-(4-chlorophenyl)-4,4-dimethylcyclohex-1-en-1-yl]methyl}piperazin-1-yl)-2-(1H-indol-5-yloxy)-N-{[4-(methylamino)-3-nitrophenyl]sulfonyl}benzamide]	>408.2
